In PubChem BioAssay (NCI):
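Five concentrations, 48 hours, 96-well plates. GI50: concentration for 50% inhibition of growth. Definition used: TGI = concentration required for complete inhibition of growth.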

Assays:
Test in all cases: NCI tumour cell line growth inhibition, 48 h
786-0 renal = system: 786-0 renal
A498 renal = system: A498 renal
A549 NSCLC = system: A549 NSCLC
ACHN renal = system: ACHN renal
BT-549 breast = system: BT-549 breast
CAKI-1 renal = system: CAKI-1 renal
CCRF-CEM leukemia = system: CCRF-CEM leukemia
COLO 205 colon = system: COLO 205 colon
DU-145 prostate = system: DU-145 prostate
EKVX NSCLC = system: EKVX NSCLC
HCC-2998 colon = system: HCC-2998 colon
HCT-116 colon = system: HCT-116 colon
HCT-15 colon = system: HCT-15 colon
HL-60(TB) leukemia = system: HL-60(TB) leukemia
HOP-62 NSCLC = system: HOP-62 NSCLC
HOP-92 NSCLC = system: HOP-92 NSCLC
HS 578T breast = system: HS 578T breast
HT29 colon = system: HT29 colon
IGROV1 ovarian = system: IGROV1 ovarian
K-562 leukemia = system: K-562 leukemia
KM12 colon = system: KM12 colon
LOX IMVI melanoma = system: LOX IMVI melanoma
M14 melanoma = system: M14 melanoma
MALME-3M melanoma = system: MALME-3M melanoma
MCF7 breast = system: MCF7 breast
MDA-MB-231 breast = system: MDA-MB-231 breast
MDA-MB-435 = system: MDA-MB-435
MOLT-4 leukemia = system: MOLT-4 leukemia
NCI-H226 lung = system: NCI-H226 lung
NCI-H23 lung = system: NCI-H23 lung
NCI-H460 lung = system: NCI-H460 lung
NCI-H522 lung = system: NCI-H522 lung
NCI/ADR-RES ovarian = system: NCI/ADR-RES ovarian
OVCAR-4 ovarian = system: OVCAR-4 ovarian
OVCAR-5 ovarian = system: OVCAR-5 ovarian
OVCAR-8 ovarian = system: OVCAR-8 ovarian
PC-3 prostate = system: PC-3 prostate
RPMI-8226 leukemia = system: RPMI-8226 leukemia
RXF 393 renal = system: RXF 393 renal
SF-268 CNS = system: SF-268 CNS
SF-295 CNS = system: SF-295 CNS
SF-539 CNS = system: SF-539 CNS
SK-MEL-2 melanoma = system: SK-MEL-2 melanoma
SK-MEL-28 melanoma = system: SK-MEL-28 melanoma
SK-MEL-5 melanoma = system: SK-MEL-5 melanoma
SK-OV-3 ovarian = system: SK-OV-3 ovarian
SN12C renal = system: SN12C renal
SNB-19 CNS = system: SNB-19 CNS
SNB-75 CNS = system: SNB-75 CNS
SR leukemia = system: SR leukemia
SW-620 colon = system: SW-620 colon
T-47D breast = system: T-47D breast
TK-10 renal = system: TK-10 renal
U251 CNS = system: U251 CNS
UACC-257 melanoma = system: UACC-257 melanoma
UACC-62 melanoma = system: UACC-62 melanoma
UO-31 renal = system: UO-31 renal

`NC(=S)n1c(=O)n(-c2cccc(C(F)(F)F)c2)c(=O)c2cc(-c3ccc(F)cc3F)ccc21` showed a GI50 (786-0 renal) of 2 µM, a TGI (786-0 renal) of 4.39 µM and a GI50 (A498 renal) of 0.341 µM. For the same molecule, the TGI (A498 renal) was 1.22 µM, the GI50 (A549 NSCLC) was 2.73 µM and the TGI (A549 NSCLC) was 11.3 µM. It also gave a GI50 (ACHN renal) of 2.27 µM, a TGI (ACHN renal) of 10.5 µM and a GI50 (BT-549 breast) of 1.18 µM. It also gave a TGI (BT-549 breast) of 2.62 µM, a GI50 (CAKI-1 renal) of 1.61 µM and a TGI (CAKI-1 renal) of 5.86 µM. For the same molecule, the GI50 (CCRF-CEM leukemia) was 2.27 µM, the TGI (CCRF-CEM leukemia) was 11.5 µM and the GI50 (COLO 205 colon) was 1.76 µM. For the same molecule, the TGI (COLO 205 colon) was 3.36 µM, the GI50 (DU-145 prostate) was 2.74 µM and the TGI (DU-145 prostate) was 13.7 µM. The GI50 (EKVX NSCLC) was 2.39 µM, the TGI (EKVX NSCLC) was 7.95 µM and the GI50 (HCC-2998 colon) was 2.96 µM. It also gave a TGI (HCC-2998 colon) of 9.27 µM, a GI50 (HCT-116 colon) of 0.953 µM and a TGI (HCT-116 colon) of 2.3 µM. For the same molecule, the GI50 (HCT-15 colon) was 0.769 µM, the TGI (HCT-15 colon) was 2.69 µM and the GI50 (HL-60(TB) leukemia) was 1.6 µM. For the same molecule, the TGI (HL-60(TB) leukemia) was 7.26 µM, the GI50 (HOP-62 NSCLC) was 1.83 µM and the TGI (HOP-62 NSCLC) was 4.44 µM. It also gave a GI50 (HOP-92 NSCLC) of 0.191 µM, a TGI (HOP-92 NSCLC) of 0.741 µM and a GI50 (HS 578T breast) of 1.11 µM. For the same molecule, the TGI (HS 578T breast) was 4.45 µM, the GI50 (HT29 colon) was 3.34 µM and the TGI (HT29 colon) was 11.9 µM. The GI50 (IGROV1 ovarian) was 1.99 µM, the TGI (IGROV1 ovarian) was 13 µM and the GI50 (K-562 leukemia) was 0.725 µM. It also gave a TGI (K-562 leukemia) of 14.1 µM, a GI50 (KM12 colon) of 2.26 µM and a TGI (KM12 colon) of 6.21 µM. It also gave a GI50 (LOX IMVI melanoma) of 1.54 µM, a TGI (LOX IMVI melanoma) of 3.17 µM and a GI50 (M14 melanoma) of 1.6 µM. It also gave a TGI (M14 melanoma) of 4.23 µM, a GI50 (MALME-3M melanoma) of 1.51 µM and a TGI (MALME-3M melanoma) of 4.95 µM. The GI50 (MCF7 breast) was 1.7 µM, the TGI (MCF7 breast) was 8.18 µM and the GI50 (MDA-MB-231 breast) was 1.82 µM. For the same molecule, the TGI (MDA-MB-231 breast) was 5.95 µM, the GI50 (MDA-MB-435) was 1.56 µM and the TGI (MDA-MB-435) was 5.46 µM. For the same molecule, the GI50 (MOLT-4 leukemia) was 1.66 µM, the TGI (MOLT-4 leukemia) was 4.84 µM and the GI50 (NCI-H226 lung) was 1.42 µM. It also gave a TGI (NCI-H226 lung) of 3.89 µM, a GI50 (NCI-H23 lung) of 1.18 µM and a TGI (NCI-H23 lung) of 5.1 µM. It also gave a GI50 (NCI-H460 lung) of 0.763 µM, a TGI (NCI-H460 lung) of 5.41 µM and a GI50 (NCI-H522 lung) of 0.428 µM. For the same molecule, the TGI (NCI-H522 lung) was 2.87 µM, the GI50 (NCI/ADR-RES ovarian) was 1.97 µM and the TGI (NCI/ADR-RES ovarian) was 9.41 µM. The GI50 (OVCAR-4 ovarian) was 2.39 µM, the TGI (OVCAR-4 ovarian) was 22.5 µM and the GI50 (OVCAR-5 ovarian) was 3.54 µM. For the same molecule, the TGI (OVCAR-5 ovarian) was 17.5 µM, the GI50 (OVCAR-8 ovarian) was 1.29 µM and the TGI (OVCAR-8 ovarian) was 6.48 µM. It also gave a GI50 (PC-3 prostate) of 1.05 µM, a TGI (PC-3 prostate) of 4.11 µM and a GI50 (RPMI-8226 leukemia) of 0.575 µM. For the same molecule, the TGI (RPMI-8226 leukemia) was 3.11 µM, the GI50 (RXF 393 renal) was 1.22 µM and the TGI (RXF 393 renal) was 3.09 µM. The GI50 (SF-268 CNS) was 2 µM, the TGI (SF-268 CNS) was 11.3 µM and the GI50 (SF-295 CNS) was 1.75 µM. For the same molecule, the TGI (SF-295 CNS) was 3.62 µM, the GI50 (SF-539 CNS) was 1.92 µM and the TGI (SF-539 CNS) was 8.79 µM. The GI50 (SK-MEL-2 melanoma) was 0.59 µM, the TGI (SK-MEL-2 melanoma) was 2.35 µM and the GI50 (SK-MEL-28 melanoma) was 1.43 µM. The TGI (SK-MEL-28 melanoma) was 6.24 µM, the GI50 (SK-MEL-5 melanoma) was 0.333 µM and the TGI (SK-MEL-5 melanoma) was 1.14 µM. The GI50 (SK-OV-3 ovarian) was 1.21 µM, the TGI (SK-OV-3 ovarian) was 3.6 µM and the GI50 (SN12C renal) was 1.26 µM. It also gave a TGI (SN12C renal) of 6.3 µM, a GI50 (SNB-19 CNS) of 1.29 µM and a TGI (SNB-19 CNS) of 22.9 µM. It also gave a GI50 (SNB-75 CNS) of 1.5 µM, a TGI (SNB-75 CNS) of 5.17 µM and a GI50 (SR leukemia) of 0.984 µM. For the same molecule, the TGI (SR leukemia) was 5.15 µM, the GI50 (SW-620 colon) was 1.6 µM and the TGI (SW-620 colon) was 4.2 µM. For the same molecule, the GI50 (T-47D breast) was 1.54 µM, the TGI (T-47D breast) was 6.09 µM and the GI50 (TK-10 renal) was 4.05 µM. It also gave a TGI (TK-10 renal) of 8.47 µM, a GI50 (U251 CNS) of 1.74 µM and a TGI (U251 CNS) of 9.31 µM. It also gave a GI50 (UACC-257 melanoma) of 1.07 µM, a TGI (UACC-257 melanoma) of 4 µM and a GI50 (UACC-62 melanoma) of 0.379 µM. The TGI (UACC-62 melanoma) was 1.61 µM, the GI50 (UO-31 renal) was 2.3 µM and the TGI (UO-31 renal) was 8.58 µM.
